# Data reported in publication PMC6950057, “Toxicity, Pharmacokinetics, and Gut Microbiome of Oral Administration of Sesterterpene MHO7 Derived from a Marine Fungus” (Marine Drugs, 2019).
# Like-named read-outs stand apart in the source and are kept apart here.
# Columns and labels:
# [1] = Plasma pharmacokinetics after single oral dose; format: in vivo; conditions: mice plasma, single oral 500 mg·kg^−1, female mice
# Description: Ninety female KM mice of 8–10 weeks of age (20–22 g) were divided randomly into 15 groups, and, after fasting for 12 h, the mice in other experiments were oral administrated at the dose of 500 mg·kg^−1 bw. About 500 μL blood samples were collected at 0.5, 1, 2, 3, 4, 5, 6, 8, 10, 12, 16, 20, 24, 30 and 36 h into heparinized tubes after the intragastric administration of MHO7. All blood samples were immediately centrifuged at 8000 g for 5 min and the resulting plasma was transferred and then processed as described in sample preparation for the analysis by LC-MS/MS. MHO7 levels in plasma were quantified by HPLC–MS/MS. The calibration curve was constructed by plotting the peak area ratio of MHO7 to the internal standard and the linearity was determined by weighted (1/x) linear regression analysis. The regression equation of the calibration curve was then used to calculate the concentration of MHO7 in the plasma. QC samples and standard curve series solutions were prepared in the same way of blank plasma. The concentrations of HQC, MQC, and LQC were 5, 0.5, and 0.05 μM·L^−1, respectively, and the concentrations of standard curve series solutions were 5, 2.5, 1, 0.5, 0.25, 0.1, 0.05, and 0.01 μM·L^−1.
# Data for each group are presented as mean ± SD. Statistical significance of different formulations were measured by one-way analysis of variance (ANOVA) followed by the Tukey Kramer multiple comparison test, using SPSS software version 14.0 (SPSS, Chicago, IL, USA), and the statistical significance was expressed by a p-value of less than 0.05. The main pharmacokinetic parameters of MHO7 was fitted by the average mean of a group in each time point with the Phoenix WinNonLin software version 6.3 (Pharsight, Cary, NC, USA). The gut microbiome analysis was performed using the free online platform of Majorbio Cloud Platform (www.majorbio.com).
# [2] = tested on: breast cancer cells (MCF-7); design: method as in PMID 31175940; conditions: mechanism of down regulating estrogen receptor alpha (ERα); cited from earlier work
# [3] = Tissue distribution after single oral dose; format: in vivo, mice; conditions: oral 500 mg·kg^−1, female mice; for concentration at 1 h / concentration at 4 h / concentration at 8 h / concentration at 12 h / concentration at 20 h / concentration at 30 h: KM, mouse
# Description: The animals and treatment methods were the same as in the pharmacokinetic studies. Afterwards, the biological samples (n = 6 per group) were collected at 1, 4, 8, 12, 20, and 30 h, and the tissues including heart, liver, spleen, lung, kidney, stomach, intestine, brain, muscle (hind limb), fat (white adipose tissue ), reproductive organs (uterus, fallopian tube and ovary) stomach and its contents, and intestine and its contents, and the blood samples were simultaneously collected. All the tissues were washed with cold physiological saline (4 °C), excess fluid blotted, accurately weighed, and subjected to the processing as described in the sample preparation. QC samples and standard curve series solutions were prepared in the same way of blank gastrointestinal contents and livers, respectively. The concentrations of HQC, MQC, and LQC in mice tissues were 10, 1, and 0.1 μM·L^−1, respectively, and the concentrations of standard curve series solutions were 50, 25, 10, 5, 2.5, 1, 0.5, 0.25, 0.1, and 0.005 μM·L^−1 for high and low concentrations of standard curves.
compound,measurement,setting,value
"CC(C)=C/C=C/[C@H](C)[C@H]1CC[C@]2(C)C[C@@H]3C(C)=CC(=O)[C@H]3/C(C=O)=C\C[C@@H]12 [MHO7, 6-epi-ophiobolin G]",AUC,"[1]; KM, mouse",10500 ng·h/mL
same,Cmax,"[1]; KM, mouse",1380 ng/mL
same,MRT,"[1]; KM, mouse",8.76 h
same,half-life,"[1]; KM, mouse",6.97 h
same,k el,"[1]; KM, mouse, read-out: Lambda_z (converted)",2.78e-05 s⁻¹
same,Tmax,"[1]; female, KM, mouse, plasma, po, 500 mg/kg",~8 h
same,V/F,[1],479.02 L/kg
same,antitumor activity,[2],potent antitumor activity
same,Concentration in Brain,[3]; 1 h,0.95 ± 0.80 µg/g
same,Concentration in Liver,[3]; 1 h,3.01 ± 1.53 µg/g
same,Concentration in Reproductive organs,[3]; 1 h,0.88 ± 0.68 µg/g
same,Concentration in Fat,[3]; 4 h,5.20 ± 3.47 µg/g
same,Concentration in Liver,[3]; 4 h,1.64 ± 1.09 µg/g
same,Concentration in Reproductive organs,[3]; 4 h,2.29 ± 1.80 µg/g
same,Concentration in Fat,[3]; 8 h,11.15 ± 8.87 µg/g
same,Concentration in Kidney,[3]; 8 h,1.66 ± 0.74 µg/g
same,Concentration in Reproductive organs,[3]; 8 h,23.90 ± 11.33 µg/g
same,Concentration in Kidney,[3]; 12 h,8.16 ± 6.23 µg/g
same,Concentration in Lung,[3]; 12 h,2.34 ± 1.91 µg/g
same,Concentration in Reproductive organs,[3]; 12 h,13.69 ± 10.29 µg/g
same,Concentration in Reproductive organs,[3]; 20 h,1.46 ± 1.23 µg/g
same,Concentration in Reproductive organs,[3]; 30 h,0.36 ± 0.46 µg/g
same,concentration at 1 h,"[3]; brain, 1 h, read-out: Concentration in Brain",950 ± 800 ng/g
same,concentration at 4 h,"[3]; brain, 4 h, read-out: Concentration in Brain",480 ± 330 ng/g
same,concentration at 8 h,"[3]; brain, 8 h, read-out: Concentration in Brain",500 ± 150 ng/g
same,concentration at 12 h,"[3]; brain, 12 h, read-out: Concentration in Brain",180 ± 110 ng/g
same,concentration at 20 h,"[3]; brain, 20 h, read-out: Concentration in Brain",100 ± 50 ng/g
same,concentration at 30 h,"[3]; brain, 30 h, read-out: Concentration in Brain",10 ± 4 ng/g
same,concentration at 1 h,"[3]; fat (white adipose tissue), 1 h, read-out: Concentration in Fat",740 ± 410 ng/g
same,concentration at 4 h,"[3]; fat (white adipose tissue), 4 h, read-out: Concentration in Fat",5200 ± 3470 ng/g
same,concentration at 8 h,"[3]; fat (white adipose tissue), 8 h, read-out: Concentration in Fat",11200 ± 8870 ng/g
same,concentration at 12 h,"[3]; fat (white adipose tissue), 12 h, read-out: Concentration in Fat",740 ± 700 ng/g
same,concentration at 20 h,"[3]; fat (white adipose tissue), 20 h, read-out: Concentration in Fat",340 ± 250 ng/g
same,concentration at 30 h,"[3]; fat (white adipose tissue), 30 h, read-out: Concentration in Fat",180 ± 160 ng/g
same,concentration at 1 h,"[3]; heart, 1 h, read-out: Concentration in Heart",60 ± 37 ng/g
same,concentration at 4 h,"[3]; heart, 4 h, read-out: Concentration in Heart",850 ± 510 ng/g
same,concentration at 8 h,"[3]; heart, 8 h, read-out: Concentration in Heart",670 ± 480 ng/g
same,concentration at 12 h,"[3]; heart, 12 h, read-out: Concentration in Heart",640 ± 300 ng/g
same,concentration at 20 h,"[3]; heart, 20 h, read-out: Concentration in Heart",40 ± 20 ng/g
same,concentration at 30 h,"[3]; heart, 30 h, read-out: Concentration in Heart",80 ± 10 ng/g
same,concentration at 1 h,"[3]; kidney, 1 h, read-out: Concentration in Kidney",110 ± 60 ng/g
same,concentration at 4 h,"[3]; kidney, 4 h, read-out: Concentration in Kidney",1630 ± 920 ng/g
same,concentration at 8 h,"[3]; kidney, 8 h, read-out: Concentration in Kidney",1660 ± 740 ng/g
same,concentration at 12 h,"[3]; kidney, 12 h, read-out: Concentration in Kidney",8160 ± 6230 ng/g
same,concentration at 20 h,"[3]; kidney, 20 h, read-out: Concentration in Kidney",390 ± 90 ng/g
same,concentration at 30 h,"[3]; kidney, 30 h, read-out: Concentration in Kidney",70 ± 10 ng/g
same,concentration at 1 h,"[3]; liver, 1 h, read-out: Concentration in Liver",3010 ± 1530 ng/g
same,concentration at 4 h,"[3]; liver, 4 h, read-out: Concentration in Liver",1640 ± 1090 ng/g
same,concentration at 8 h,"[3]; liver, 8 h, read-out: Concentration in Liver",180 ± 220 ng/g
